US20260041649A1, “ANTI-INFLAMMATORY AGENT” (WATANABE OYSTER LABORATORY, CO., LTD., priority 2023, published 2026)

How the values were obtained:
[1] = tested on: RAW264.7 cells cultured with LPS; assay: Cell proliferation of RAW264.7 cells cultured with LPS; assay type: cell-based, mouse; conditions: DHMBA 1 or 10 μM, LPS 100 ng/ml, 3 days
Description: In FIG. 5A, to examine the effect on cell proliferation, RAW264.7 cells (1×10^5/ml/well) were cultured for 3 days in a DMEM culture medium containing 10% FBS, 1% P/S, and 1% fungizone in the control group (1% ethanol as final concentration) with or without LPS (1, 10, 50, 100, 500 ng/ml). In FIG. 5B, cells (1×10^5/ml per well) were cultured for 3 days in a DMEM culture medium containing 10% FBS, 1% P/S, and 1% fungizone in the DHMBA-treated group (1 or 10 μM) with or without LPS (100 ng/ml). In FIG. 5C, to examine the effect on cell death, cells that had reached subconfluence after 3 days of culture were cultured for another 48 hours in the control group (1% ethanol) with or without LPS (1, 10, 50, 100, or 500 ng/ml). In FIG. 5D, cells that had reached subconfluence were cultured for another 48 hours in the DHMBA-treated group (1 or 10 μM) with or without LPS (100 ng/ml). After the culture, the number of cells attached to the dish was counted. Data are presented as the mean±SD from a total of 8 wells in 2 plates using different cell preparations. *: Significant difference (p<0.01) versus the controls without LPS (gray bars) (FIG. 5A and FIG. 5C) or without DHMBA (gray bars) (FIG. 5B and FIG. 5D). […]
The number of viable cells was counted under a microscope (Olympus MTV-3) using a hemocytometer (Sigma-Aldrich) and a cell counter (H-102P, Line Seiki Co., Ltd., Tokyo, Japan).

[2] = tested on: mouse macrophage RAW264.7 cells; assay: Western blotting of proteins related to proliferation; assay type: cell-based; conditions: DHMBA 10 μM, 3 days
Description: RAW264.7 cells (1×10^6 cells/10 ml of medium in 100 mm dish) were cultured for 3 days in a DMEM culture medium containing 10% FBS, 1% P/S, and 1% fungizone in the control group (1% ethanol; 0 μM DHMBA as final concentration) and the DHMBA treated group (10 μM). After the culture, cells were removed from the dish using a cell scraper in a cell lysis buffer containing protease inhibitors. Forty micrograms of supernatant protein per lane were separated by electrophoresis on a 12% SDS-PAGE gel, transferred onto a […], and probed by Western blotting with antibodies against various proteins. […] In FIG. 3(B), band intensities are shown as fold increase over the control. Data are presented as the mean±SD of values obtained from 4 dishes using different cell preparations. *: Significant difference (p<0.001) between the control group and the DHMBA-treated group. Statistical analysis was performed using 1-way ANOVA with Tukey-Kramer post-test.
RAW264.7 cells (1×10^6 cells/10 ml of 100 mm dish) were cultured for 3 days in 10% FBS, 1% P/S (1% ethanol), or in the DHMBA-treated group (10 μM). After the culture, the dishes were washed with cold PBS (10 ml) to remove floating and dead cells. The cell lysis buffer (Cell Signaling Technology, Inc., Danvers, MA, USA) supplemented with protease/protein phosphatase inhibitor (Roche Diagnostics, Indianapolis, IN, USA) was added to the cells to collect cell lysates of the adherent cells as described in the previous study. The cell lysates were centrifuged at 17,000×g, 4° C. for 10 min. Protein concentrations in the supernatants were measured using Bio-Rad Protein Assay Dye (Bio-Rad Laboratories, Inc., Hercules, CA, USA) with bovine serum albumin as a standard. The cell lysates were stored at −80° C. until use. The supernatant proteins (40 μg/lane) were separated by SDS-polyacrylamide gel electrophoresis (12% SDS-PAGE) and transferred to a PVDF membrane. The transferred membranes were immunoblotted with specific antibodies against various proteins, including Ras (cat. no. 3339, rabbit), Akt (cat. no. 9272, rabbit), mitogen-activated protein kinase (MAPK; cat. no. 4695, rabbit), phosphorylated MAPK (cat. no. 4370, rabbit), mechanistic target of rapamycin (mTOR; cat. no. 4517, mouse), Rb (cat. no. 9309, mouse), p21 (cat. no. 2947, rabbit), STAT3 (cat. no. 12640, rabbit), COX-1 (cat. no. 48415), COX-2 (cat. no. 4842), and β-actin (cat. no. 3700, mouse), all of which were purchased from Cell Signaling Technology, Inc. (Danvers, MA, USA). Specific antibodies for p53 (cat. no. sc-126, mouse) and NF-κB p65 (cat. no. sc-109, rabbit) were purchased from Santa Cruz Biotechnology Inc. (Santa Cruz, CA, USA). Additionally, rabbit anti-regucalcin antibody (cat. no. HPA029103, rabbit) was obtained from Sigma-Aldrich. Target proteins were incubated overnight at 4° C. with one of the above primary antibodies (1:1,000). After incubation, the membranes were further incubated with horseradish peroxidase-conjugated secondary antibodies (Santa Cruz Biotechnology Inc., cat. no. sc-2005 (mouse) or sc-2305 (rabbit); dilution 1:2000) for 60 min at room temperature, and protein bands were detected using chemiluminescence substrates (cat. no. 34577, Thermo Fisher Scientific Inc., Rockford, IL, USA) on X-ray films. From 4 independent experiments, a total of 3 or 4 films with separate membranes were scanned with Epson Perfection 1660 Photo scanner to quantify the bands using Image J2 software (National Institutes of Health, Bethesda, MD, USA). In addition, for immunoblotting using additional antibodies, the membranes were incubated at room temperature for 30 min with Restore (registered trademark) Western Blot Stripping Buffer (cat. no. 21059; Thermo Fisher Scientific Inc., Rockford, IL, USA) to remove attached chemiluminescence substrates (Thermo Fisher Scientific Inc.,) and were used to measure other protein molecules.

COc1c(O)cc(CO)cc1O [DHMBA, 3,5-dihydroxy-4-methoxybenzyl alcohol]
decreased: level of Akt [2] | level of MAPK [2] | level of PI3 kinase [2] | level of Ras [2] | level of mTOR [2] | level of phospho-MAPK [2]
increased: expression level of Rb [2] | expression level of p21 [2] | expression level of p53 [2] | expression level of regucalcin [2]
suppressed: proliferation of RAW264.7 cells in the presence of LPS [1]
